Experimental data reported in patent US10993999B2, “Materials and methods for producing improved lentiviral vector particles” (IMMUNE DESIGN CORP., priority 2012, dated 2021).
Like-named read-outs stand apart in the source and are kept apart here.

System: PBMC-derived human dendritic cells
Type: cell-based

Cc1cn([C@H]2C[C@H](N=[N+]=[N-])[C@@H](CO)O2)c(=O)[nH]c1=O [AZT]
effect of reverse-transcriptase inhibitor on transduction (integration-deficient VSV-G-pseudotyped particles, 200 ng p24): inhibited

Cc1ccnc2c1NC(=O)c1cccnc1N2C1CC1 [Nevirapine]
effect of reverse-transcriptase inhibitor on transduction (integration-competent VSV-G-pseudotyped particles, 20 ng p24): inhibited

B1: Vpx: SIVmac Vpx protein (SEQ ID NO: 44), SAMHD1 inhibitor packaged into the lentivirus particles (protein)
chain: MSDPRERIPPGNSGEETIGEAFEWLNRTVEEINREAVNHLPRELIFQVWQRSWEYWHDEQGMSQSYVKYRYLCLMQKALFMHCKKGCRCLGEGHGAGGWRPGPPPPPPPGLA
modifications: Simian immunodeficiency virus
role of Vpx in transduction of human dendritic cells (integration-competent VSV-G-pseudotyped lentiviral vector particles): enhanced | role of Vpx in transduction of human dendritic cells (integration-deficient VSV-G-pseudotyped lentiviral particles): required
